Key:
[1] = molecular target: human recombinant BACE1 (Homo sapiens (Human), UniProt P56817); experiment: In vitro enzymatic BACE1 FRET assay; format: biochemical; conditions: read-out: IC50 IP (μM) BACE1 enzyme
Method in brief: (§1)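 Fluorescence from cleavage of a quenched peptide spanning the BACE site (50 nM) was read at 488 nm excitation, 590 nm emission. Purified enzyme (Ni-NTA) and compound reacted for one hour before a Tris stop shifted pH to neutral.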

[2] = molecular target: human recombinant BACE2 (Homo sapiens (Human), UniProt Q9Y5Z0); experiment: In vitro enzymatic BACE2 FRET assay; format: biochemical; conditions: read-out: IC50 IP (μM) BACE2 enzyme
Chain of human recombinant BACE2 (Q9Y5Z0 63-518): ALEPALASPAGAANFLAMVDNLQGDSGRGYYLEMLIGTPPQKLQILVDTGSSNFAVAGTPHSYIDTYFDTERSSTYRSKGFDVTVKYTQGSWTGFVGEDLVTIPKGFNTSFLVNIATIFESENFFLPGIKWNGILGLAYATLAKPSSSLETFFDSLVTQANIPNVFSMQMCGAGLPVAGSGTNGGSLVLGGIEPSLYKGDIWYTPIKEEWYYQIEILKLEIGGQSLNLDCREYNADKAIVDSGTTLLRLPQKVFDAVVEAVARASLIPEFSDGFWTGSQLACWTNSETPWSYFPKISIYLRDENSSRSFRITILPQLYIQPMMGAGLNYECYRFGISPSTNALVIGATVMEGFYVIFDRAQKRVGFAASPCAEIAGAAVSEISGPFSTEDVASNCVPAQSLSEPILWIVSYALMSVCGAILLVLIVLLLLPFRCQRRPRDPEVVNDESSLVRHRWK
Method in brief: as §1

[3] = tested on: Aβ40 in conditioned medium of cells stably expressing Amyloid Precursor Protein (APP); experiment: In vitro BACE-1 cell-based assay (Aβ40 sandwich ELISA); conditions: read-out: IC50 IP (μM) BACE1 cell
Method in brief: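 Aβ40 in supernatants measured by time-resolved fluorescence sandwich ELISA, with pAb40 as capture and biotin-6E10 as detector antibody, each incubated at 4 °C.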

[4] = molecular target: Recombinant Cat D (Homo sapiens (Human), UniProt P07339); experiment: In vitro enzymatic Cathepsin D (Cat D) FRET assay; format: biochemical; conditions: read-out: IC50 IP (μM) CatD
Chain of Recombinant Cat D (P07339 65-412): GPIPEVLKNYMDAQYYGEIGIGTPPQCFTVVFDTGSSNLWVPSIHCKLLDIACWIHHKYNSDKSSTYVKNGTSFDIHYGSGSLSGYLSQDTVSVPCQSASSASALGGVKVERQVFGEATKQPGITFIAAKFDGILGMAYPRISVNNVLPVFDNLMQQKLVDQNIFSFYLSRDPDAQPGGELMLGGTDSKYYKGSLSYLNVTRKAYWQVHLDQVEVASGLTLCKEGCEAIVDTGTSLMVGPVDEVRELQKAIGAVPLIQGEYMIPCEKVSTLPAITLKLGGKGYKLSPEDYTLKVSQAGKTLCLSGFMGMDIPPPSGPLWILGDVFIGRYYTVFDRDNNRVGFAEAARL
Method in brief: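 Recombinant Cat D expressed in CHO cells, assayed in 0.05 M citrate pH 3.5 with 5 mM CHAPS and 10% DMSO final. Reaction started with 20 nM FRET peptide substrate, incubated one hour, then stopped by Tris buffer to neutral pH; fluorescence read at ex 500/em 580 nm.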

Chain of human recombinant BACE1 (P56817 46-501): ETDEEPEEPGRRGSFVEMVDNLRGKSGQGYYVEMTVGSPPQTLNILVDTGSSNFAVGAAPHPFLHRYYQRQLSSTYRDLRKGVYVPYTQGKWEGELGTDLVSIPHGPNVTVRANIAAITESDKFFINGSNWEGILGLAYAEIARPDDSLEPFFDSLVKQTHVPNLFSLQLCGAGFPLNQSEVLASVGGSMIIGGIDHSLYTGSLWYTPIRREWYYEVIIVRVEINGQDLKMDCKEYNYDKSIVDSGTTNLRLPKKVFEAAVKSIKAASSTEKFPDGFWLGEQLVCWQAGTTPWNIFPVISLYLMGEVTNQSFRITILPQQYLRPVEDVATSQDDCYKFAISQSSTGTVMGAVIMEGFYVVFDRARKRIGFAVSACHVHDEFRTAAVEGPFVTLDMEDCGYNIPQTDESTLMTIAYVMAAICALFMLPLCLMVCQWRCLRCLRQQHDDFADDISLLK

COC[C@]12C[C@H]1[C@@](C)(c1cc(Nc3nccc4nc(OCc5ncccn5)cnc34)cc(F)c1F)N=C(N)S2 [Example 881, N-(3-((1S,5S,6S)-3-amino-1-(methoxymethyl)-5-methyl-2-thia-4-azabicyclo[4.1.0]hept-3-en-5-yl)-4,5-difluorophenyl)-2-(2-pyrimidinylmethoxy)pyrido[3,4-b]pyrazin-5-amine]
IC50 [1]: 0.00936 µM
IC50 [2]: 0.14 µM
IC50 [3]: 0.00819 µM
IC50 [4]: 349 µM

COC[C@]12C[C@H]1[C@@](C)(c1cc(Nc3nccc4nc(OCc5nc(C)no5)cnc34)cc(F)c1F)N=C(N)S2 [Example 882, N-(3-((1S,5S,6S)-3-amino-1-(methoxymethyl)-5-methyl-2-thia-4-azabicyclo[4.1.0]hept-3-en-5-yl)-4,5-difluorophenyl)-2-((3-methyl-1,2,4-oxadiazol-5-yl)methoxy)pyrido[3,4-b]pyrazin-5-amine]
IC50 [1]: 0.00778 µM
IC50 [2]: 0.381 µM
IC50 [3]: 0.0204 µM
IC50 [4]: 911 µM

Cc1nc(COc2cnc3c(Nc4cc(F)c(F)c([C@@]5(C)N=C(N)S[C@@]6(C(F)F)C[C@@H]56)c4)nccc3n2)no1 [Example 883, N-(3-((1S,5S,6S)-3-amino-1-(difluoromethyl)-5-methyl-2-thia-4-azabicyclo[4.1.0]hept-3-en-5-yl)-4,5-difluorophenyl)-2-((5-methyl-1,2,4-oxadiazol-3-yl)methoxy)pyrido[3,4-b]pyrazin-5-amine]
IC50 [1]: 0.000316 µM
IC50 [2]: 0.091 µM
IC50 [3]: 0.0133 µM
IC50 [4]: 363 µM

C[C@]1(c2cc(Nc3nccc4nc(OCc5ncccn5)cnc34)cc(F)c2F)N=C(N)S[C@@]2(C(F)F)C[C@@H]12 [Example 884, N-(3-((1S,5S,6S)-3-amino-1-(difluoromethyl)-5-methyl-2-thia-4-azabicyclo[4.1.0]hept-3-en-5-yl)-4,5-difluorophenyl)-2-(2-pyrimidinylmethoxy)pyrido[3,4-b]pyrazin-5-amine]
IC50 [1]: 0.00427 µM
IC50 [2]: 0.13 µM
IC50 [3]: 0.0119 µM
IC50 [4]: > 400 µM

COC[C@]12C[C@H]1[C@@](C)(c1cc(Nc3nccc4nc(OCc5noc(C)n5)cnc34)cc(F)c1F)N=C(N)S2 [Example 885, N-(3-((1S,5S,6S)-3-amino-1-(methoxymethyl)-5-methyl-2-thia-4-azabicyclo[4.1.0]hept-3-en-5-yl)-4,5-difluorophenyl)-2-((5-methyl-1,2,4-oxadiazol-3-yl)methoxy)pyrido[3,4-b]pyrazin-5-amine]
IC50 [1]: 0.00223 µM
IC50 [2]: 0.143 µM
IC50 [3]: 0.00823 µM
IC50 [4]: 592 µM

Cc1nc(COc2cnc3c(Nc4cc(F)c(F)c([C@@]5(C)N=C(N)S[C@@]6(C(F)F)C[C@@H]56)c4)nccc3n2)c(C)o1 [Example 886, N-(3-((1S,5S,6S)-3-amino-1-(difluoromethyl)-5-methyl-2-thia-4-azabicyclo[4.1.0]hept-3-en-5-yl)-4,5-difluorophenyl)-2-((2,5-dimethyl-1,3-oxazol-4-yl)methoxy)pyrido[3,4-b]pyrazin-5-amine]
IC50 [1]: 0.0011 µM
IC50 [2]: 0.0278 µM
IC50 [3]: 0.0411 µM
IC50 [4]: 136 µM

Cc1noc(COc2cnc3c(Nc4cc(F)c(F)c([C@@]5(C)N=C(N)S[C@@]6(C(F)F)C[C@@H]56)c4)nccc3n2)n1 [Example 887, N-(3-((1S,5S,6S)-3-amino-1-(difluoromethyl)-5-methyl-2-thia-4-azabicyclo[4.1.0]hept-3-en-5-yl)-4,5-difluorophenyl)-2-((3-methyl-1,2,4-oxadiazol-5-yl)methoxy)pyrido[3,4-b]pyrazin-5-amine]
IC50 [1]: 0.00295 µM
IC50 [2]: 0.317 µM
IC50 [3]: 0.0442 µM
IC50 [4]: > 400 µM

Cc1cnc(COc2cnc3c(Nc4cc(F)c(F)c([C@@]5(C)N=C(N)S[C@@]6(C(F)F)C[C@@H]56)c4)nccc3n2)o1 [Example 888, N-(3-((1S,5S,6S)-3-amino-1-(difluoromethyl)-5-methyl-2-thia-4-azabicyclo[4.1.0]hept-3-en-5-yl)-4,5-difluorophenyl)-2-((5-methyl-1,3-oxazol-2-yl)methoxy)pyrido[3,4-b]pyrazin-5-amine]
IC50 [1]: 0.00209 µM
IC50 [2]: 0.0581 µM
IC50 [3]: 0.0218 µM
IC50 [4]: 71.9 µM

Cc1nnc(COc2cnc3c(Nc4cc(F)c(F)c([C@@]5(C)N=C(N)S[C@@]6(C(F)F)C[C@@H]56)c4)nccc3n2)s1 [Example 889, N-(3-((1S,5S,6S)-3-amino-1-(difluoromethyl)-5-methyl-2-thia-4-azabicyclo[4.1.0]hept-3-en-5-yl)-4,5-difluorophenyl)-2-((5-methyl-1,3,4-thiadiazol-2-yl)methoxy)pyrido[3,4-b]pyrazin-5-amine]
IC50 [1]: 0.0418 µM
IC50 [2]: 1.41 µM
IC50 [3]: 0.252 µM
IC50 [4]: 306 µM

C[C@@H](Oc1cnc2c(Nc3cc(F)c(F)c([C@@]4(C)N=C(N)S[C@@]5(C(F)F)C[C@@H]45)c3)nccc2n1)c1ncco1 [Example 891, N-(3-((1S,5S,6S)-3-amino-1-(difluoromethyl)-5-methyl-2-thia-4-azabicyclo[4.1.0]hept-3-en-5-yl)-4,5-difluorophenyl)-2-((1 R)-1-(1,3-oxazol-2-yl)ethoxy)pyrido[3,4-b]pyrazin-5-amine]
IC50 [1]: 0.177 µM
IC50 [2]: 1.09 µM
IC50 [3]: 2.88 µM
IC50 [4]: 984 µM

C[C@H](Oc1cnc2c(Nc3cc(F)c(F)c([C@@]4(C)N=C(N)S[C@@]5(C(F)F)C[C@@H]45)c3)nccc2n1)c1ncco1 [Example 892, N-(3-((1S,5S,6S)-3-amino-1-(difluoromethyl)-5-methyl-2-thia-4-azabicyclo[4.1.0]hept-3-en-5-yl)-4,5-difluorophenyl)-2-((1 S)-1-(1,3-oxazol-2-yl)ethoxy)pyrido[3,4-b]pyrazin-5-amine]
IC50 [1]: 0.00278 µM
IC50 [2]: 0.848 µM
IC50 [3]: 0.056 µM
IC50 [4]: 873 µM

C[C@]1(c2cc(Nc3nccc4nc(OCCN5CCCC5=O)cnc34)cc(F)c2F)N=C(N)S[C@@]2(C(F)F)C[C@@H]12 [Example 893, 1-(2-((5-((3-((1S,5S,6S)-3-amino-1-(difluoromethyl)-5-methyl-2-thia-4-azabicyclo[4.1.0]hept-3-en-5-yl)-4,5-difluorophenyl)amino)pyrido[3,4-b]pyrazin-2-yl)oxy)ethyl)-2-pyrrolidinone]
IC50 [1]: 0.149 µM
IC50 [2]: 3.86 µM
IC50 [3]: 1.66 µM
IC50 [4]: 518 µM

COC[C@H](C)Oc1cnc2c(Nc3cc(F)c(F)c([C@@]4(C)N=C(N)S[C@@]5(C(F)F)C[C@@H]45)c3)nccc2n1 [Example 894, N-(3-((1S,5S,6S)-3-amino-1-(difluoromethyl)-5-methyl-2-thia-4-azabicyclo[4.1.0]hept-3-en-5-yl)-4,5-difluorophenyl)-2-((1S)-2-methoxy-1-methylethoxy)pyrido[3,4-b]pyrazin-5-amine]
IC50 [1]: 0.00372 µM
IC50 [2]: 0.464 µM
IC50 [3]: 0.05 µM
IC50 [4]: > 133 µM

COc1cnc2c(Nc3cc(F)c(F)c([C@@]4(C)N=C(N)S[C@@]5(C(F)F)C[C@@H]45)c3)nccc2n1 [Example 895, N-(3-((1S,5S,6S)-3-amino-1-(difluoromethyl)-5-methyl-2-thia-4-azabicyclo[4.1.0]hept-3-en-5-yl)-4,5-difluorophenyl)-2-methoxypyrido[3,4-b]pyrazin-5-amine]
IC50 [1]: 0.0053 µM
IC50 [2]: 0.0254 µM
IC50 [3]: 0.113 µM
IC50 [4]: 167 µM

C[C@]1(c2cc(Nc3nccc4[nH]c(=O)cnc34)cc(F)c2F)N=C(N)S[C@@]2(C(F)F)C[C@@H]12 [Example 896, 5-((3-((1S,5S,6S)-3-amino-1-(difluoromethyl)-5-methyl-2-thia-4-azabicyclo[4.1.0]hept-3-en-5-yl)-4,5-difluorophenyl)amino)pyrido[3,4-b]pyrazin-2(1H)-one]
IC50 [1]: 0.018 µM
IC50 [2]: 0.0223 µM
IC50 [3]: 0.135 µM
IC50 [4]: 128 µM

COc1cnc2c(Nc3cc(F)c(F)c([C@@]4(C)N=C(N)S[C@H]5C[C@H]54)c3)ncnc2c1 [Example 897, N-(3-((1S,5S,6S)-3-amino-5-methyl-2-thia-4-azabicyclo[4.1.0]hept-3-en-5-yl)-4,5-difluorophenyl)-7-methoxypyrido[3,2-d]pyrimidin-4-amine]
IC50 [1]: 0.035 µM
IC50 [2]: 0.184 µM
IC50 [3]: 0.038 µM
IC50 [4]: 1440 µM

COC(=O)[C@]12C[C@H]1[C@@](C)(c1cc(NC(=O)c3ccc(Cl)cn3)cc(F)c1F)N=C(N)S2 [Example 898, (1S,5S,6S)-methyl 3-amino-5-(5-(5-chloropicolinamido)-2,3-difluorophenyl)-5-methyl-2-thia-4-azabicyclo[4.1.0]hept-3-ene-1-carboxylate]
IC50 [1]: 0.00454 µM
IC50 [2]: 0.00268 µM
IC50 [3]: 0.111 µM
IC50 [4]: 673 µM

COc1cnc2c(Nc3cc(F)c(F)c([C@@]4(C)N=C(N)S[C@H]5C[C@H]54)c3)nccc2n1 [Example 900, N-(3-((1S,5S,6S)-3-amino-5-methyl-2-thia-4-azabicyclo[4.1.0]hept-3-en-5-yl)-4,5-difluorophenyl)-2-methoxypyrido[3,4-b]pyrazin-5-amine]
IC50 [1]: 0.0324 µM
IC50 [2]: 0.0972 µM
IC50 [3]: 0.195 µM
IC50 [4]: 559 µM
